Reference: patent publication US20260242759A1, “GQ/11 Protein Peptidomimetics” (Vrije Universiteit Brussel, priority 2022, published 2026)
Positions of bridges follow the written chain, without caps; N, C: chain ends. Non-standard residues stand in square brackets, D forms with d. Residues, ends and D or L forms follow the SMILES beside them. Triazole bridges read from a SMILES are 1,4-linked. Lys(N3) = [N-]=[N+]=NCCCC[C@H](N)C(=O)O; Cha = N[C@@H](CC1CCCCC1)C(=O)O; Pra = C#CC[C@H](N)C(=O)O

How the values were obtained:
[1] = target: T1, human muscarinic 1 receptor (M1R) (Homo sapiens, UniProt P11229); assay: Radioligand binding assay (RLA) on M1R membrane extracts; settings: for Shift: IC50 of agonist without mimetic divided by IC50 with mimetic, averaged value; for increase of agonist affinity / stabilization of the receptor: acetylcholine chloride, mimetic at 100 μM
T1 construct: The M1R constructs used in this assay consisted of the full-length human muscarinic 1 receptor; FLAG (N); expressed in transfected cells; membrane extracts
T1 sequence (P11229 1-460): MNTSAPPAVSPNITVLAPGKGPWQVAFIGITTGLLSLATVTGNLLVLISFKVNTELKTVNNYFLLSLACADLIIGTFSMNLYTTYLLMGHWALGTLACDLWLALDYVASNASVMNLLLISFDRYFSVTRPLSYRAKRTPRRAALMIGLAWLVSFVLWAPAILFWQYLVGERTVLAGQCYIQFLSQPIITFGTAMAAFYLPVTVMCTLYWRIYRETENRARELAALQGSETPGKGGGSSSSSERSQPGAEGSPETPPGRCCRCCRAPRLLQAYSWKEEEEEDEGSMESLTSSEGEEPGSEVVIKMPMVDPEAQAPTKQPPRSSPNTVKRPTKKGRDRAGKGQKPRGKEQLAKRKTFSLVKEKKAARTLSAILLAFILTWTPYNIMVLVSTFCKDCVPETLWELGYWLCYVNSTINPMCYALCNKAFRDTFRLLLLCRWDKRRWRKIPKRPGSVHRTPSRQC
From the text: A radioligand displacement assay can quantify the pharmacological stabilization of the GPCR in the active conformation by comparing the affinities of an agonist for the basal versus the active GPCR conformer. In particular, stabilization of a GPCR in an active conformational state or specific binding to a GPCR in an active conformational state by a G protein peptidomimetic or a Gq/11 protein peptidomimetic as disclosed herein can be determined based on the shift in IC50 value of a ligand, in particular an agonist more particularly an orthosteric agonist, which binds to the GPCR when tested in the presence and the absence of the G protein peptidomimetic or the Gq/11 protein peptidomimetic. During the assay, the binding affinity of an orthosteric agonist for the receptor in presence and absence of the (allosteric) peptidomimetic is determined. Therefore, the GPCR, e.g. embedded in membrane extracts, is incubated with a radioligand and different concentrations of the agonist. By increasing the agonist concentration, radioligand will be displaced by the agonist. A leftward shift of the curve in the presence of the peptidomimetic is indicative of a peptidomimetic capable of stabilizing a GPCR in an active conformational state. A “shift” in IC50 value or IC50 shift is defined herein as the IC50 ratio of a ligand, in particular an agonist, more particularly an orthosteric agonist, which binds to the GPCR in the absence of a G protein peptidomimetic or a Gq/11 protein peptidomimetic relative to the presence of the G protein peptidomimetic or the Gq/11 protein peptidomimetic, or the IC50 value of a ligand, in particular an agonist, for binding to the GPCR in the absence of a G protein peptidomimetic or a Gq/11 protein peptidomimetic divided by the IC50 value of the ligand in the presence of the G protein peptidomimetic or the Gq/11 protein peptidomimetic in the same preparation, wherein said IC50 values are determined in a radioligand binding assay or radioligand displacement assay (RLA) as known to the skilled person. For example, a human muscarinic acetylcholine 1 receptor (M1R) radioligand binding assay using ^3H—N-methyl scopolamine (^3H-NMS) as the radioligand and increasing concentrations of acetylcholine chloride (agonist) as cold competitor may be used.
The membrane extracts were prepared from cells that overexpressed muscarinic acetylcholine 1 receptor (M1R), by resuspending the cell pellet in a buffer (1 ml buffer/2×1E7 cells) containing 20 mM Hepes (pH 7.4), 100 mM NaCl, Leupeptin and phenylmethylsulfonyl fluoride (PMSF). Afterwards the cells were vortexed and homogenized in ice using a small volume ULTRA-TURRAX® (6×10 sec). The cells were then centrifuged for 15 min at 16000 rcf, in a pre-cooled centrifuge (4° C.) and resuspended in the previous buffer containing 10% sucrose. Finally, the membranes were again homogenized in ice with the small volume ULTRA-TURRAX® (3×10 sec). The protein concentration in the membrane extracts was determined using a Pierce™ bicinchoninic acidv (BCA) Protein Assay Kit and the protein concentration was extrapolated from the Bovine Serum Albumine standard curve.
The M1R constructs used in this assay consisted of the full-length human muscarinic 1 receptor with a FLAG tag at the N-terminus. A buffer containing 20 mM Hepes pH 7.4, 100 mM NaCl, and 0.1% BSA was used for the ligands, membrane extracts and peptides (+1% dimethylsulfoxide (DMSO)). The competition assay was performed with [3H]—N-methyl scopolamine ([3H]-NMS) as radiolabeled antagonist, at a final concentration of 0.6 nM. A ten-fold dilution series of the agonist, acetylcholine chloride, was prepared to obtain a dose response curve. After incubation, the samples were harvested into filter plates (GF/C) and washed with ice cold washing buffer (20 mM Hepes pH 7.4) using the 96-well harvester. […]

[2] = target: T2, human ghrelin receptor (GHSR) (Homo sapiens, UniProt Q92847, C146S/C304S); assay: Bimane fluorescence assay on purified ghrelin receptor in nanodiscs; type: biochemical; settings: bimane labeled GHSR; for maximum emission wavelength of bimane: in presence of full agonist JMV1843 (20 μM); for conformational change in the receptor: in presence of JMV1843
T2 construct: integrin α5 fragment (N); polyhistidine tag (C); made in house; host or cells: E. coli BL21(DE3)
T2 sequence (Q92847 whole entry C146S/C304S, the tested form may be a part): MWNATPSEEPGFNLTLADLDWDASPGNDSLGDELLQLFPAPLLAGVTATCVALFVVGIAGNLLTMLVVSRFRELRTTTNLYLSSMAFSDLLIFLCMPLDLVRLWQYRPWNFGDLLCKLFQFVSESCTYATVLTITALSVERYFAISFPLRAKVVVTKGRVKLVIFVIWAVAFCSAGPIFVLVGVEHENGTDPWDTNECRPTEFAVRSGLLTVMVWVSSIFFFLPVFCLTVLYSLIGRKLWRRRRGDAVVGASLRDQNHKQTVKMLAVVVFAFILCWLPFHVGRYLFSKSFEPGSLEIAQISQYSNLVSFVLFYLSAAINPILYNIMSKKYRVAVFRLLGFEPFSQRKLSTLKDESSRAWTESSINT
From the text: Another assay that can be used to analyse conformational changes associated with GPCR activation and/or to identify G protein peptidomimetics that are capable of stabilizing a GPCR in an active conformational state is the bimane fluorescence assay or bimane assay. This assay works through labelling of a cysteine residue in the lower part of the TM6 of a GPCR with a bimane-fluorophore (monobromobimane (MB)). Binding of an agonist to the GPCR causes a conformational change and outward movement of TM6 that places bimane in a more solved-exposed position, which will alter its maximum emission wavelength. In particular, increasing concentrations of agonist result in a concentration-dependent red-shift of the maximum emission wavelength (λmax) of the bimane-fluorophore probe. In the presence of a G protein or an active state stabilizing G protein peptidomimetic λmax may increase further. For example, a bimane labelled ghrelin receptor (such as a cysmin mutant (i.e. mutant with minimal cysteines) of human ghrelin receptor (also referred to herein as growth hormone secretagogue receptor (GHSR) (e.g. the mutant as described in Damian et al. (2021) wherein monobromobimane (MB) fluorescent probe is attached to Cys^255) and ghrelin receptor agonist JMV1843 may be used.
The bimane fluorescence assays on the ghrelin receptor were performed as described in Damian et al. (2021. Nat. Commun. 12:1-15). Briefly, E. coli bacteria (BL21(DE3)) were transformed with a vector encoding the human ghrelin receptor with an integrin α5 fragment at the N-terminus and a polyhistidine tag at the C-terminus. The receptors were then purified and reconstituted into lipidated nanodiscs. The monobromobimane labeling was performed by incubating the receptors, with a unique reactive cysteine at position 255, during 16 h in the dark at 4° C. and in the presence of 0.1 mM tris(2-carboxyethyl)phosphine (TCEO). The reaction was terminated with 5 mM L-cysteine and unreacted monobromobimane was removed using a Zeba™ Spin desalting column.
For the fluorescence assay, the labeled receptor was incubated during 2 h at 20° C. (0.2 μM final concentration), in the absence or presence of the full agonist JMV1843 (20 μM) and in the absence or presence of either the peptidomimetics at varying molar ratios or the purified Gαqβ1γ2 heterotrimer, at a 1:5 receptor-to-G protein molar ratio. Afterwards, the fluorescence experiments were performed on a Horiba Fluoromax-4 TCSP spectrofluorimeter. For each scan, the excitation wavelength (λexc) was set at 380 nm and emission was collected between 440 nm and 520 nm.
The bimane assay is used on GPCRs to detect conformational changes associated with receptor activation. This assay functions through the labelling of a cysteine, which is one of the least frequently occurring amino acids in proteins. Additionally, the majority of the extracellular cysteines form disulfide bonds, which, together with the transmembrane cysteines, are inert to thiol-reactive reagents. Additionally, some of the intracellular cysteines in the C-terminal tail may carry post-translational modifications which reduces the number of reactive cysteines in the receptor (Tian et al. 2017. Chem. Rev. 117:186-245). For GHSR, the remaining reactive cysteine residues C146 (ICL2) and C304 (extracellular end of TM7) were replaced by serines (cysmin mutant, i.e. mutant with minimal cysteines), to allow the monobromobimane (MB) fluorescent probe to be specifically attached to Cys255 in the lower part of TM6 (FIG. 5a) (Damian et al. 2021). In this assay, bimane is chosen because of its small size and sensitivity to the polarity of its environment (Yao et al. 2006. Nat Chem. Biol. 2:417-422). Binding of a ligand to the receptor, causes a conformational change and outward movement of TM6 that places bimane in a more solvent-exposed position, which alters its maximum emission wavelength. […]

Compound | Shift [1] | increase of agonist affinity / stabilization of the receptor [1] | maximum emission wavelength of bimane [2] | conformational change in the receptor [2]
CC[C@H](C)[C@H](NC(=O)[C@@H]1CCCCn2cc(nn2)C[C@H](NC(=O)[C@H](CC(N)=O)NC(=O)[C@H](Cc2ccccc2)NC(=O)[C@H](CCCCN)NC(=O)[C@H](CCCCN)NC(=O)[C@H](CCCCN)NC(C)=O)C(=O)N[C@@H](CS)C(=O)N[C@@H](CCCCN)C(=O)N[C@@H](CC(=O)O)C(=O)N1)C(=O)N[C@@H](CC(C)C)C(=O)N[C@@H](CCC(N)=O)C(=O)N[C@@H](CCSC)C(=O)N[C@@H](CC(N)=O)C(=O)N[C@@H](CC(C)C)C(=O)N[C@@H](CCCNC(=N)N)C(=O)N[C@@H](CCC(=O)O)C(=O)N[C@@H](Cc1ccc(O)cc1)C(=O)N[C@@H](CC(N)=O)C(=O)N[C@@H](CC(C)C)C(=O)N[C@H](C(=O)O)C(C)C [SBL-GQ-11] (Ac-KKKFN[Pra]CKD[Lys(N3)]ILQMNLREYNLV-OH; triazole 6-10) | 7 | slight increase in agonist affinity | ~478 nm | 
CC[C@H](C)[C@H](NC(=O)[C@@H]1CCCCn2cc(nn2)C[C@H](NC(=O)[C@H](C)NC(=O)[C@H](Cc2ccccc2)NC(=O)[C@H](CCCCN)NC(=O)[C@H](CCCCN)NC(=O)[C@H](CCCCN)NC(C)=O)C(=O)N[C@@H](C(C)C)C(=O)N[C@@H](CCCCN)C(=O)N[C@@H](CC(=O)O)C(=O)N1)C(=O)N[C@@H](CC(C)C)C(=O)N[C@@H](CCC(N)=O)C(=O)N[C@@H](CC(C)C)C(=O)N[C@@H](CC(N)=O)C(=O)N[C@@H](CC(C)C)C(=O)N[C@@H](CCCCN)C(=O)N[C@@H](CCC(=O)O)C(=O)N[C@@H](Cc1ccc(O)cc1)C(=O)N[C@@H](CC(N)=O)C(=O)N[C@@H](CC1CCCCC1)C(=O)N[C@H](C(=O)O)C(C)C [SBL-GQ-06] (Ac-KKKFA[Pra]VKD[Lys(N3)]ILQLNLKEYN[Cha]V-OH; triazole 6-10) | 8 | slight increase in agonist affinity | ~478 nm | 
CC[C@H](C)[C@H](NC(=O)[C@H](CC(=O)O)NC(=O)[C@H](CCCCN)NC(=O)[C@H](CS)NC(=O)[C@H](CC(=O)O)NC(=O)[C@H](CC(N)=O)NC(=O)[C@H](Cc1ccccc1)NC(=O)[C@H](CCCCN)NC(=O)[C@H](CCCCN)NC(=O)[C@H](CCCCN)NC(C)=O)C(=O)N[C@H](C(=O)N[C@@H](CC(C)C)C(=O)N[C@@H](CCC(N)=O)C(=O)N[C@@H](CCSC)C(=O)N[C@@H](CC(N)=O)C(=O)N[C@@H](CC(C)C)C(=O)N[C@@H](CCCNC(=N)N)C(=O)N[C@@H](CCC(=O)O)C(=O)N[C@@H](Cc1ccc(O)cc1)C(=O)N[C@@H](CC(N)=O)C(=O)N[C@@H](CC1CCCCC1)C(=O)N[C@H](C(=O)O)C(C)C)[C@@H](C)CC [SBL-GQ-10] (Ac-KKKFNDCKDIILQMNLREYN[Cha]V-OH) | 2 |  |  | not able to induce a conformational change
Ac-KKKFNDCKDIILQMNLREYNLV-OH [SBL-GQ-08] | 2 |  |  | not able to induce a conformational change
Ac-KKKFAAVKDTILQLNLKEYNLV-OH [SBL-GQ-02] | 2 |  |  | not able to induce a conformational change
CC[C@H](C)[C@H](NC(=O)[C@@H]1CCCCn2cc(nn2)C[C@H](NC(=O)[C@H](CC(N)=O)NC(=O)[C@H](Cc2ccccc2)NC(=O)[C@H](CCCCN)NC(=O)[C@H](CCCCN)NC(=O)[C@H](CCCCN)NC(C)=O)C(=O)N[C@@H](CS)C(=O)N[C@@H](CCCCN)C(=O)N[C@@H](CC(=O)O)C(=O)N1)C(=O)N[C@@H](CC(C)C)C(=O)N[C@@H](CCC(N)=O)C(=O)N[C@@H](CCSC)C(=O)N[C@@H](CC(N)=O)C(=O)N[C@@H](CC(C)C)C(=O)N[C@@H](CCCNC(=N)N)C(=O)N[C@@H](CCC(=O)O)C(=O)N[C@@H](Cc1ccc(O)cc1)C(=O)N[C@@H](CC(N)=O)C(=O)N[C@@H](CC1CCCCC1)C(=O)N[C@H](C(=O)O)C(C)C [SBL-GQ-12] (Ac-KKKFN[Pra]CKD[Lys(N3)]ILQMNLREYN[Cha]V-OH; triazole 6-10) | 34 | more significant and promising stabilization of the receptor | ~478 nm | 
